GI50 and TGI data for eight compounds are collected here from PubChem BioAssay (NCI).

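Test compounds were applied to cells in 96-well plates for 48 hours at 5 doses. GI50: concentration for 50% inhibition of growth. Definition used: TGI = concentration required for complete inhibition of growth.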 Where only a bound is given, the exact number is not on record here.

Among the test systems are CCRF-CEM leukemia; HOP-62 NSCLC; HOP-92 NSCLC; M14 melanoma; NCI/ADR-RES ovarian; OVCAR-3 ovarian; RXF 393 renal; SK-MEL-28 melanoma; TK-10 renal; UO-31 renal.
Holding throughout (experiment): inhibition of tumour cell growth, NCI panel, 48 h

For the compound `CS(=O)(=O)c1ccc(Nc2nc(N[C@H]3CCCC[C@H]3N)nc3cc[nH]c(=O)c23)cc1`, the GI50 was 1.24 µM in the test with CCRF-CEM leukemia; 3.02 µM with HOP-62 NSCLC; 2.04 µM with HOP-92 NSCLC; 2.16 µM in the test with M14 melanoma; above 100 µM in the test with NCI/ADR-RES ovarian; 1.3 µM in the test on OVCAR-3 ovarian. Also, the GI50 in the test on RXF 393 renal was 1.03 µM; in the test on SK-MEL-28 melanoma, 1.93 µM; in the test with TK-10 renal, 3.19 µM; in the test with UO-31 renal, 19.7 µM. In addition, the TGI is above 100 µM with CCRF-CEM leukemia; above 100 µM with HOP-62 NSCLC; 23.6 µM with HOP-92 NSCLC; 8.83 µM in the test with M14 melanoma; above 100 µM in the test with NCI/ADR-RES ovarian; 4.67 µM in the test on OVCAR-3 ovarian. In addition, the TGI in the test on RXF 393 renal was 3.04 µM; with SK-MEL-28 melanoma it was 5.38 µM; in the test with TK-10 renal it was 18.7 µM; with UO-31 renal, 72.9 µM.
`COc1cccc2cc(N(C)c3nc(C)nc4c3CCC4)ccc12`: the GI50 in the test on CCRF-CEM leukemia was below 0.01 µM; with HOP-62 NSCLC it was below 0.01 µM; in the test on HOP-92 NSCLC, below 0.0169 µM; with M14 melanoma, below 0.01 µM; in the test on NCI/ADR-RES ovarian, below 0.01 µM; with OVCAR-3 ovarian, below 0.01 µM. For the same compound, the GI50 in the test on RXF 393 renal was below 0.01 µM; with SK-MEL-28 melanoma, 4.7 µM; in the test with TK-10 renal it was 9.32 µM; with UO-31 renal it was below 0.0104 µM. The TGI in the test on CCRF-CEM leukemia is 14.7 µM; with HOP-62 NSCLC it was 13.1 µM; with HOP-92 NSCLC it was 1.48 µM; in the test on M14 melanoma, 14 µM; with NCI/ADR-RES ovarian it was 16.1 µM; in the test with OVCAR-3 ovarian it was below 0.01 µM. Besides, the TGI stood at 23.7 µM with RXF 393 renal, 21.6 µM in the test with SK-MEL-28 melanoma, 30.5 µM with TK-10 renal and 18.1 µM in the test on UO-31 renal.
With `CC(C)OC(=S)Nc1ccc(Cl)c(/C=N/OC(C)(C)C)c1`, the TGI in the test on CCRF-CEM leukemia came to 36.8 µM; in the test with HOP-62 NSCLC it was 41.4 µM; in the test with HOP-92 NSCLC it was 25.5 µM; with M14 melanoma it was 39.9 µM; in the test with NCI/ADR-RES ovarian, 16.8 µM; with OVCAR-3 ovarian, 33.6 µM. Besides, the TGI with RXF 393 renal came out at 30.9 µM; in the test with SK-MEL-28 melanoma, 44.8 µM; in the test on TK-10 renal, 17.1 µM; with UO-31 renal, 27.2 µM.
For `COc1ccc(-c2nc(-c3nc4ccc(C)cc4[nH]3)cc3c2[nH]c2ccccc23)cc1`, the GI50 was 2.94 µM in the test with CCRF-CEM leukemia; 5.78 µM with HOP-62 NSCLC; 2.17 µM with HOP-92 NSCLC; 3.09 µM in the test with M14 melanoma; 3.72 µM with NCI/ADR-RES ovarian; 3.59 µM in the test with OVCAR-3 ovarian. Further, the GI50 in the test with RXF 393 renal is 3.82 µM; in the test on SK-MEL-28 melanoma, 5 µM; in the test on TK-10 renal it was 5.45 µM; in the test on UO-31 renal, 2.99 µM. For the same compound, the TGI with CCRF-CEM leukemia is 18.7 µM; in the test on HOP-62 NSCLC, above 100 µM; with HOP-92 NSCLC, 8.11 µM; in the test with M14 melanoma it was 11.7 µM; in the test with NCI/ADR-RES ovarian, above 100 µM; in the test with OVCAR-3 ovarian it was 12 µM. Also, the TGI with RXF 393 renal, in the test on SK-MEL-28 melanoma, with TK-10 renal and in the test with UO-31 renal was above 100 µM in each case.
On to `COc1ccc(-c2ccc(/C=N/n3c(COc4ccccc4Cl)nn(CN4CCOCC4)c3=S)o2)c([N+](=O)[O-])c1`, for which the GI50 in the test on CCRF-CEM leukemia was 18.7 µM; in the test with HOP-62 NSCLC, 30 µM; in the test on HOP-92 NSCLC, 21.6 µM; with M14 melanoma, 22.3 µM; in the test on NCI/ADR-RES ovarian, 21.3 µM; in the test on OVCAR-3 ovarian, 16.7 µM. For the same compound, the GI50 in the test with RXF 393 renal was 22.3 µM; in the test on SK-MEL-28 melanoma it was 46 µM; with TK-10 renal it was 14.9 µM; in the test on UO-31 renal, 37.1 µM. The TGI in the test on CCRF-CEM leukemia came out at 47.9 µM; in the test with HOP-62 NSCLC, 85.5 µM; in the test on HOP-92 NSCLC, 52.6 µM; with M14 melanoma it was 55.8 µM; with NCI/ADR-RES ovarian it was 49.2 µM; with OVCAR-3 ovarian, 52.4 µM. Besides, the TGI with RXF 393 renal is 61.6 µM; in the test with SK-MEL-28 melanoma it was above 100 µM; with TK-10 renal it was 47.9 µM; in the test on UO-31 renal it was above 100 µM.
With `Cc1ccc([N+](=O)[O-])c2c(NCCNC(=O)c3cc(C(=O)NCCNc4ccnc5c(C)ccc([N+](=O)[O-])c45)n(C)n3)ccnc12`, the TGI in the test on CCRF-CEM leukemia was above 46.4 µM; in the test with HOP-62 NSCLC it was above 71.2 µM; with HOP-92 NSCLC, above 100 µM; in the test with M14 melanoma it was above 100 µM; in the test with NCI/ADR-RES ovarian, above 100 µM; in the test on OVCAR-3 ovarian, above 100 µM. Moreover, the TGI in the test with RXF 393 renal was above 100 µM; with SK-MEL-28 melanoma it was above 78 µM; with TK-10 renal, above 100 µM; with UO-31 renal, above 100 µM.
Turning to `CNCCCNc1nc2ccccc2c2c(=O)c3cc(OC)ccc3sc12`, the GI50 in the test on CCRF-CEM leukemia was 2.39 µM; in the test on HOP-62 NSCLC, 1.76 µM; in the test on HOP-92 NSCLC, 1.35 µM; in the test on M14 melanoma, 1.99 µM; in the test with NCI/ADR-RES ovarian, 1.82 µM; in the test on OVCAR-3 ovarian, 1.82 µM. Besides, the GI50 in the test with RXF 393 renal was 1.56 µM; with SK-MEL-28 melanoma, 1.74 µM; in the test on TK-10 renal it was 1.73 µM; in the test on UO-31 renal, 1.42 µM. The TGI with CCRF-CEM leukemia is 6.08 µM; in the test with HOP-62 NSCLC it was 3.76 µM; in the test with HOP-92 NSCLC it was 5.67 µM; in the test on M14 melanoma, 3.82 µM; in the test with NCI/ADR-RES ovarian, 3.64 µM; with OVCAR-3 ovarian, 3.43 µM. In addition, the TGI came to 3.07 µM in the test on RXF 393 renal, 3.15 µM with SK-MEL-28 melanoma, 3.39 µM in the test on TK-10 renal and 2.75 µM with UO-31 renal.
As for `COC(=O)c1c(-c2cccs2)oc(-c2cccs2)c1C(=O)OC`, the GI50 was 27.4 µM with CCRF-CEM leukemia; 32.8 µM with HOP-62 NSCLC; 31.9 µM in the test on HOP-92 NSCLC; 20.3 µM in the test on M14 melanoma; 31.6 µM in the test on NCI/ADR-RES ovarian; 30.4 µM in the test on OVCAR-3 ovarian. For the same compound, the GI50 with RXF 393 renal is 31 µM; in the test with SK-MEL-28 melanoma it was 56.7 µM; with TK-10 renal it was 27.9 µM; in the test on UO-31 renal, 19.3 µM. Further, the TGI in the test with CCRF-CEM leukemia is above 100 µM; in the test on HOP-62 NSCLC, above 100 µM; with HOP-92 NSCLC it was above 100 µM; in the test on M14 melanoma it was 55.2 µM; in the test on NCI/ADR-RES ovarian, above 94.5 µM; in the test with OVCAR-3 ovarian it was above 94.5 µM. For the same compound, the TGI in the test with RXF 393 renal is above 100 µM; in the test with SK-MEL-28 melanoma, above 100 µM; in the test on TK-10 renal, 82 µM; with UO-31 renal, 60.1 µM.
